Results published in patent US5686424A, “2-oxoethyl derivatives as immunosuppressants” (Miles Inc., priority 1995, dated 1997).

Biological target: FKBP (Homo sapiens, UniProt P62942)
Test: PPIase Inhibition Assay
Format: biochemical
Conditions: concentration of inhibitor required for 50% inhibition of enzyme activity; FKBP, substrate Succinyl-Ala-Phe-Pro-Phe-para-nitroanilide; TABLE I
In short: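 Chymotrypsin-coupled isomerization of Succinyl-Ala-Phe-Pro-Phe-para-nitroanilide by FKBP in ice-cold 25 mM HEPES pH 7.8, 100 mM NaCl, compound in DMSO. A390 followed 90 sec; first-order rate constants give % activity remaining after subtracting uncatalyzed rate; IC50 by linear regression of V-/V+ versus concentration.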

FKBP, sequence (P62942 whole entry): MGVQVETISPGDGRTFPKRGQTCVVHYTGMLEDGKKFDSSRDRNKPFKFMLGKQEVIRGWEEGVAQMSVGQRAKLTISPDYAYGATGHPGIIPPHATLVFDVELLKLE

Question: With `CC[C@H](C)[C@H](NC(=O)[C@@H]1CCCN1CC(=O)NC12CC3CC(CC(C3)C1)C2)C(=O)NCc1ccccc1` [Example 39, L-Isoleucine, N-[1-(2-Aminoadamant-1-yl-2-oxoethyl)-L-Prolyl] Benzylamide] as the compound, how does the IC50 read?
Answer: 15000 nM

Question: How did the IC50 turn out when `CC[C@H](C)[C@H](NC(=O)[C@@H]1CCCN1CC(=O)C1CC2CC(C1C)C2(C)C)C(=O)NCc1ccccc1` (stereo partly drawn) [Example 41, L-Isoleucine, N-[1-[2-(2,6,6-Trimethyl-Bicyclo[3.1.1]hept-3-yl)-2-Oxoethyl]-L-Prolyl] Benzylamide] was run?
Answer: < 5000 nM

Question: `O=C(NCc1ccccc1)[C@H](COCc1ccccc1)NC(=O)[C@@H]1CCCN1CC(=O)C12CC3CC(CC(C3)C1)C2` [Example 62, L-Serine-(O-Benzyl Ether), N-[1-(2-Adamantan-1-yl-2-Oxoethyl)-L-Prolyl] Benzylamide] was tested. Which IC50 did it give?
Answer: 1300 nM

Question: Which IC50 does the source give for `O=C(CC(NC(=O)[C@@H]1CCCN1CC(=O)C12CC3CC(CC(C3)C1)C2)c1ccccc1)NCc1ccccc1` (stereo partly drawn) [Example 63, L-β-Phenylalanine, N-[1-(2-Adamantan-1-yl-2-Oxoethyl)-L-Prolyl] Benzylamide] here?
Answer: 300 nM

Question: `CC[C@H](C)[C@H](NC(=O)[C@@H]1CCCN1CC(=O)C12CC3CC(CC(C3)C1)C2)C(=O)N[C@H](C)c1ccccc1` [Example 66, L-Isoleucine, N-[1-(2-Adamantan-1-yl-2-Oxoethyl)-L-Prolyl] alpha-(R)-methylbenzylamide] was tested. Which IC50 did it give?
Answer: 100 nM

Question: For `CC[C@H](C)[C@H](NC(=O)[C@@H]1CCCN1CC(=O)NC1C2CC3CC(C2)CC1C3)C(=O)NCc1ccccc1` (stereo partly drawn) [Example 90, L-Isoleucine, N-[1-(Adamantan-2-ylcarbamoylmethyl)-L-Prolyl] Benzylamide], which IC50 is on record?
Answer: < 5000 nM

Question: `CC[C@H](C)[C@H](NC(=O)[C@@H]1CCCN1CC(=O)O[C@H](c1ccccc1)C(C)C)C(=O)NCc1ccccc1` [Example 92, L-Isoleucine, N-[1-(2-(2-Methyl-1-(S)-Phenyl-1-Propoxy)-2-Oxoethyl)-L-Prolyl] Benzylamide] was tested. Which IC50 did it give?
Answer: 600 nM

Question: For `CC[C@H](C)[C@H](NC(=O)[C@@H]1CCCN1CC(=O)O[C@@H](c1ccccc1)C(C)C)C(=O)NCc1ccccc1` [Example 93, L-Isoleucine, N-[1-(2-(2-Methyl-1-(R)-Phenyl-1-Propoxy)-2-Oxoethyl)-L-Prolyl] Benzylamide], which IC50 is on record?
Answer: 1200 nM
